Experiment [1] has as its system HCT116-FOP. The experiment is described as follows: Control reporter assay, HCT116 cells with FOP control vector (non-functional TCF elements). The format is cell-based. Conditions: Homo sapiens, HCT-116, luciferase expression, 36 hours incubation, dilution series 50 μM to 15 nM, read-out: HCT116-FOP IC50 [M] mol/L]. As to the method: In a parallel approach, HCT116 cells were cotransfected with the FOP control vector and pcDNA3. The FOP vector is identical to the TOP construct, but it contains instead of functional TCF elements a randomized, non-functional sequence. For this transfection a stable transfected cell line was generated as well.
(§1) In preparation of the assay, the two cell lines were plated 24 hours before at 10000 cells per well of a 384 micro titre plate (MTP) in 30 μL growth medium. Selective inhibitory activity for small molecules on the mutated Wnt pathway was determined after parallel incubation of both (TOP and FOP) HCT116 reporter cell lines with a compound dilution series from 50 μM to 15 nM in steps of 3.16-fold dilutions in CAFTY buffer (130 mM NaCI, 5 mM KCI, 20 mM HEPES, 1 mM MgCl2, 5 mM NaHCO3, pH 7.4) containing 2 mM Ca^2+ and 0.01% BSA. The compounds were thereby serially prediluted in 100% DMSO and thereafter in addition 50 fold into the CAFTY compound dilution buffer (described above). From this dilution 10 μL were added to the cells in 30 μL growth medium and incubated for 36 hours at 37° C. and 5% CO2. Thereafter luciferase assay buffer (1:1 mixture of luciferase substrate buffer (20 mM Tricine, 2.67 mM MgSO4, 0.1 mM EDTA, 4 mM DTT, 270 μM Coenzyme A, 470 μM Luciferin, 530 μM ATP, ph adjusted to pH 7.8 with a sufficient volume of 5M NaOH) and Triton buffer (30 mL Triton X-100, 115 mL glycerol, 308 mg Dithiothreitol, 4.45 g Na2HPO4. 2 H2O, 3.03 g TRIS HCl, ad 1I H2O, pH 7.8) was added as equal volume to the compound solution on the cells to determine luciferase expression as a measure of Wnt signaling activity in a luminometer.
Background: A reporter such as luciferase makes a cellular process visible.

In experiment [2] the test system is constitutive active colorectal cancer cell (CRC) Wnt pathway (HCT116-TOP). Briefly: Cellular reporter assay, HCT116 Super TopFlash (TOP), constitutive active Wnt pathway. Conditions: Homo sapiens, HCT-116; HCT116 Super TopFlash reporter cells, luciferase expression, 36 hours incubation, dilution series 50 μM to 15 nM. The format is cell-based. On the procedure: In order to discover and characterize small molecules which inhibit the constitutive active colorectal cancer cell (CRC) Wnt pathway, a cellular reporter assay was employed. The corresponding assay cell was generated by transfection of the colorectal cancer cell line HCT116 (ATCC, #CCL-247) with the Super TopFlash vector (Morin, Science 275, 1997, 1787-1790; Molenaar et al., Cell 86 (3), 1996, 391-399). The HCT116 cell line is cultivated at 37° C. and 5% CO2 in DMEM/F-12 (Life Technologies, #11320-074), supplemented with 2 mM glutamine, 20 mM HEPES, 1.4 mM pyruvate, 0.15% Na-bicarbonate and 10% foetal bovine serum (GIBCO, #10270), this cancer cell line is pathophysiological relevant since it carries a deletion of position S45 in the β-catenin gene, leading to constitutive active Wnt signaling. Stable transfectants were generated by cotransfection with pcDNA3 and selection of stable transfected cells with 1 mg/ml G418.
as §1

Some results are limits rather than exact numbers.

Regarding `O=C(CN1CCOCC1)Nc1cc(C(=O)Nc2nnc(N3CCN(C(=O)C4CC4)CC3)s2)ccc1OC(F)(F)F` [Example 20, N-{5-[4-(cyclopropylcarbonyl)-piperazin-1-yl]-1,3,4-thiadiazol-2-yl}-3-[(morpholin-4-ylacetyl)amino]-4-(trifluoromethoxy)benzamide], the results for the IC50 in experiment [1] and in experiment [2] were at least 5e-05 M and 3.91 µM, respectively.
The like results for `COC(=O)N1CCN(c2nnc(NC(=O)c3ccc(OC(F)(F)F)c(NC(=O)CN4CCOCC4)c3)s2)CC1` [Example 24, methyl 4-[5-({3-[(morpholin-4-ylacetyl)amino]-4-(trifluoromethoxy)benzoyl}-amino)-1,3,4-thiadiazol-2-yl]piperazine-1-carboxylate] were, in that order, at least 5e-05 M and 4.6 µM.
`CC1CCN(c2nnc(NC(=O)c3ccc(OC(F)(F)F)c(NC(=O)CN4CCOCC4)c3)s2)CC1` [Example 25, N-[5-(4-methylpiperidin-1-yl)-1,3,4-thiadiazol-2-yl]-3-[(morpholin-4-ylacetyl)-amino]-4-(trifluoromethoxy)-benzamide]: the IC50 in experiment [1] is at least 5e-05 M; in experiment [2] it was 13 µM.
The like results for `CC1(O)CCN(c2nnc(NC(=O)c3ccc(OC(F)(F)F)c(NC(=O)CN4CCOCC4)c3)s2)CC1` [Example 27] were, in that order, at least 5e-05 M and 20 µM.
As for `CC(C)(O)C1CCN(c2nnc(NC(=O)c3ccc(OC(F)(F)F)c(NC(=O)CN4CCOCC4)c3)s2)CC1` [Example 10], the figures for the IC50 in experiment [1] and in experiment [2] were at least 5e-05 M and 0.84 µM, respectively.
For `CCOC(=O)N1CCN(c2nnc(NC(=O)c3ccc(OC(F)(F)F)c(NC(=O)CN4CCN(C)CC4)c3)s2)CC1` [Example 17, ethyl 4-(5-{[3-{[(4-methylpiperazin-1-yl)acetyl]-amino}-4-(trifluoromethoxy)-benzoyl]amino}-1,3,4-thiadiazol-2-yl)piperazine-1-carboxylate] the same measures were 4.1e-05 M and 2.85 µM.
The like results for `CN1CCN(CC(=O)Nc2cc(C(=O)Nc3nnc(N4CCC(C)(C)CC4)s3)ccc2OC(F)(F)F)CC1` [Example 12, 4-(2-{[5-{[5-(4,4-dimethylpiperidin-1-yl)-1,3,4-thiadiazol-2-yl]carbamoyl}-2-(trifluoromethoxy)phenyl]amino}-2-oxoethyl)-1-methylpiperazin-1-ium hexafluorophosphate] were, in that order, 1.5e-05 M and 0.26 µM.
Turning to `COC(=O)C1CCN(c2nnc(NC(=O)c3ccc(OC(F)(F)F)c(NC(=O)CN4CCOCC4)c3)s2)CC1` [Example 21, methyl 1-[5-({3-[(morpholin-4-ylacetyl)amino]-4-(trifluoromethoxy)benzoyl}-amino)-1,3,4-thiadiazol-2-yl]-piperidine-4-carboxylate], the IC50 is at least 5e-05 M in experiment [1] and 4.1 µM in experiment [2].
The like results for `CC1(C)CCN(c2nnc(NC(=O)c3ccc(OC(F)(F)F)c(NC(=O)CN4CCOCC4)c3)s2)CC1` [Example 34, N-[5-(4,4-dimethylpiperidin-1-yl)-1,3,4-thiadiazol-2-yl]-3-[(morpholin-4-ylacetyl)-amino]-4-(trifluoromethoxy)-benzamide] were, in that order, at least 5e-05 M and 50 µM.
For `O=C(CN1CCOCC1)Nc1cc(C(=O)Nc2nnc(N3CCCC3)s2)ccc1OC(F)(F)F` [Example 32, 3-[(morpholin-4-ylacetyl)-amino]-N-(5-(pyrrolidin-1-yl)-1,3,4-thiadiazol-2-yl)-4-(trifluoromethoxy)benzamide] the same measures were at least 5e-05 M and 50 µM.
For the molecule `CN1CCN(CC(=O)Nc2cc(C(=O)Nc3nnc(N4CCN(C(=O)OC(C)(C)C)CC4)s3)ccc2OC(F)(F)F)CC1` [Example 2], the IC50 in experiment [1] was at least 5e-05 M; in experiment [2] it was 0.0415 µM.
As to `O=C(CN1CCOCC1)Nc1cc(C(=O)Nc2nnc(N3CCC(O)CC3)s2)ccc1OC(F)(F)F` [Example 29, N-[5-(4-hydroxypiperidin-1-yl)-1,3,4-thiadiazol-2-yl]-3-[(morpholin-4-ylacetyl)-amino]-4-(trifluoromethoxy)-benzamide], the IC50 in experiment [1] was at least 5e-05 M; in experiment [2] it was 26.8 µM.
For `CC1CCN(c2nnc(NC(=O)c3ccc(OC(F)(F)F)c(NC(=O)CN4CCN(C)CC4)c3)s2)CC1` [Example 7] the same measures were at least 5e-05 M and 0.11 µM.
For `COC(=O)N1CCN(c2nnc(NC(=O)c3ccc(OC(F)(F)F)c(NC(=O)CN4CCN(C)CC4)c3)s2)CC1` [Example 6, methyl 4-(5-{[3-{[(4-methylpiperazin-1-yl)pacetyl]amino}-4-(trifluoromethoxy)benzoyl]amino}-1,3,4-thiadiazol-2-yl)ppiperazine-1-carboxylate] the same measures were 4.65e-05 M and 0.0655 µM.
The like results for `O=C(CN1CCOCC1)Nc1cc(C(=O)Nc2nnc(C3CCCCC3)s2)ccc1OC(F)(F)F` [Example 23, N-(5-cyclohexyl-1,3,4-thiadiazol-2-yl)-3-[(morpholin-4-ylacetyl)amino]-4-(trifluoromethoxy)benzamide] were, in that order, at least 5e-05 M and 4.59 µM.
Turning to `CN1CCN(CC(=O)Nc2cc(C(=O)Nc3nnc(N4CCCCC4)s3)ccc2OC(F)(F)F)CC1` [Example 1, 3-{[(4-methylpiperazin-1-yl)pacetyl]amino}-N-[5-(piperidin-1-yl)-1,3,4-thiadiazol-2-yl]-4-(trifluoromethoxy)benzamide], the results for the IC50 in experiment [1] and in experiment [2] were at least 5e-05 M and 0.36 µM, respectively.
Regarding `COC(=O)C1CCN(c2nnc(NC(=O)c3ccc(OC(F)(F)F)c(NC(=O)CN4CCN(C)CC4)c3)s2)CC1` [Example 22, methyl 1-(5-{[3-{[(4-methyl-piperazin-1-yl)acetyl]amino}-4-(trifluoromethoxy)benzoyl]-amino}-1,3,4-thiadiazol-2-yl)-piperidine-4-carboxylate], the IC50 was at least 5e-05 M in experiment [1] and 4.3 µM in experiment [2].
For `CN1CCN(CC(=O)Nc2cc(C(=O)Nc3nnc(N4CCN(C(=O)N(C)C)CC4)s3)ccc2OC(F)(F)F)CC1` [Example 16, N,N-dimethyl-4-(5-{[3-{[(4-methylpiperazin-1-yl)acetyl]-amino}-4-(trifluoromethoxy)-benzoyl]amino}-1,3,4-thiadiazol-2-yl)piperazine-1-carboxamide] the same measures were at least 5e-05 M and 2.1 µM.
As for `COC1CCN(c2nnc(NC(=O)c3ccc(OC(F)(F)F)c(NC(=O)CN4CCOCC4)c3)s2)CC1` [Example 30, N-[5-(4-methoxypiperidin-1-yl)-1,3,4-thiadiazol-2-yl]-3-((morpholin-4-ylacetyl)-amino]-4-(trifluoromethoxy)-benzamide], the IC50 in experiment [1] is at least 5e-05 M; in experiment [2], 33.5 µM.
`CC(=O)N1CCN(c2nnc(NC(=O)c3ccc(OC(F)(F)F)c(NC(=O)CN4CCOCC4)c3)s2)CC1` [Example 26, N-[5-(4-acetylpiperazin-1-yl)-1,3,4-thiadiazol-2-yl]-3-[(morpholin-4-ylacetyl)amino]-4-(trifluoromethoxy)benzamide]: the values for the IC50 in experiment [1] and in experiment [2] were at least 5e-05 M and 15 µM, respectively.
The like results for `CN1CCN(CC(=O)Nc2cc(C(=O)Nc3nnc(N4CCCC4)s3)ccc2OC(F)(F)F)CC1` [Example 4, 3-{[(4-methylpiperazin-1-yl)pacetyl]amino}-N-[5-(pyrrolidin-1-yl)-1,3,4-thiadiazol-2-yl]-4-(trifluoromethoxy)benzamide] were, in that order, at least 5e-05 M and 0.492 µM.
In the case of `CN1CCN(CC(=O)Nc2cc(C(=O)Nc3nnc(N4CCC(C(C)(C)O)CC4)s3)ccc2OC(F)(F)F)CC1` [Example 28, N-{5-[4-(2-hydroxypropan-2-yl)piperidin-1-yl]-1,3,4-thiadiazol-2-yI}-3-{[(4-methylpiperazin-1-yl)-acetyl]amino}-4-(trifluoromethoxy)benzamide], the IC50 is 2.69e-05 M in experiment [1] and 20 µM in experiment [2].

Source of the values: patent US20180044306A1, “1,3,4-THIADIAZOL-2-YL-BENZAMIDE DERIVATIVES AS INHIBITORS OF THE WNT SIGNALLING PATHWAY” (Bayer Pharma Aktiengesellschaft, priority 2015, published 2018).
